We go through 23 molecules from US9040518B2, “Chemical compounds” (GlaxoSmithKline LLC, priority 2010, dated 2015).

As usually defined, the pIC50 is −log10 of the IC50, conventionally taken in molar units. Low values mean a large IC50, high ones a small IC50.

Molecules are shown by their SMILES. pIC50: −log10 of the molar value. Structures can show the parent of a compound that is named as a salt.

Chain of ileal bile acid cotransporter (iBAT) (Q12908 whole entry): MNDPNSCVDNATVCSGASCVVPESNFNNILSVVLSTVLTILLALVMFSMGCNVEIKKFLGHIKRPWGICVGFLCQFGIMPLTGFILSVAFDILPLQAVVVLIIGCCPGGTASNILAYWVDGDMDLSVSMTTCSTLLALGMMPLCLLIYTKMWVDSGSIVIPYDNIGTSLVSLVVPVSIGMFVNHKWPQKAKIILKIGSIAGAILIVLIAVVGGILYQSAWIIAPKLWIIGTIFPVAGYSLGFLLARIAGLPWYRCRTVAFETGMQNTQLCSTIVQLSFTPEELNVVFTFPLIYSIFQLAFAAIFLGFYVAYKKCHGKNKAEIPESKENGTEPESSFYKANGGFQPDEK

In this experiment the target is ileal bile acid cotransporter (iBAT) (Homo sapiens (Human), UniProt Q12908). In words: Human iBAT inhibition: [3H]-taurocholate uptake into HEK293 cells expressing human iBAT. In kind it is cell-based. The settings on record: HEK293 cells transduced with human iBAT Bacmam virus, 90 minutes at ambient temperature, mean of at least 2 datapoints. On the procedure:
Method for Determination of Human iBAT Inhibition:
In preparation for measurement of bile acid uptake into cells expressing the ileal bile acid cotransporter (iBAT), HEK293 cells were cultured in DMEM/F12 supplemented with 10% FBS. Twenty four hours prior to running an experiment, cells were harvested when at a confluence of 80-90%. Cells were seeded in poly-d-lysine coated plates at 50,000 cells per well, and human iBAT Bacmam virus was added such that each well contains 3.67×10e6 pfu (73.4pfu/cell). Each assay plate was covered with Breathe Easy Seal and placed in an incubator for 24 hours to allow expression of the transporter.
On the day of the uptake experiment, 10 mM HEPES was added to Hank's Balanced Salt Solution, and the pH was adjusted to 7.4 with TRIS (HBSSH). The assay buffer was prepared by adding […] [^3H]-taurocholate and 10 μM cold taurocholate to room temperature HBSSH. A separate washing buffer was prepared by adding 10 μM cold taurocholate to HBSSH (˜30 ml per assay plate) and placed on ice. Using 100% DMSO, 8 point, 3-fold dilution curves for each test compound was prepared starting at 200 μM. Similarly, an 8 point dose response curve was prepared of the control compound [(3R,5R)-3-butyl-3-ethyl-7,8-bis(methyloxy)-5-phenyl-2,3,4,5-tetrahydro-1,4-benzothiazepine 1,1-dioxide (Brieaddy, L. E. WO9605188, 1996)] starting at 1.8 mM. Drug plates were created by adding 3 μL of each concentration to a v-bottom 96-well plate then diluted 60-fold with 177 μL of assay buffer. Plates were removed from the incubator and allowed to cool to ambient temperature. Media was aspirated, and wells were washed once with 300 μL HBSSH. 50 μL of each dose response curve concentration was added in triplicate by column to the assay plates, reserving column 10 for control (assay buffer+1.67% DMSO) and columns 11 and 12 for the control compound. Plates were incubated at ambient temperature for 90 minutes then the plates were aspirated then washed 1× with 300 μL of wash buffer. 220 μL of Microscint 20 was added to each well, and the plates were sealed. The amount of [^3H]-taurocholate in cell lysate was quantitated using a microplate scintillation counter on the following day.
IC50's can be generated using the formula, y=(Vmax*x^n)/(K^n+x^n).
Molecule `CCCC[C@]1(CC)CS(=O)(=O)c2cc(CCC(=O)NCC(=O)O)c(OC)cc2[C@@H](c2ccccc2)N1` [Example 14, N-{3-[(3R,5R)-3-butyl-3-ethyl-7-(methyloxy)-1,1-dioxido-5-phenyl-2,3,4,5-tetrahydro-1,4-benzothiazepin-8-yl]propanoyl}glycine] had a pIC50 of 6.56.

In turn, `CCCC[C@]1(CC)CS(=O)(=O)c2cc(CNC(=O)C(=O)O)c(OC)cc2[C@@H](c2ccccc2)N1` [Example 64, ({[(3R,5R)-3-butyl-3-ethyl-7-(methyloxy)-1,1-dioxido-5-phenyl-2,3,4,5-tetrahydro-1,4-benzothiazepin-8-yl]methyl}amino)(oxo)acetic acid] gave a negative logarithm of the IC50 (pIC50) of 8.22.

For the molecule `CCCC[C@]1(CC)CS(=O)(=O)c2cc(CNCCCC(=O)O)c(OC)cc2[C@@H](c2ccccc2)N1` [Example 30, 4-({[(3R,5R)-3-butyl-3-ethyl-7-(methyloxy)-1,1-dioxido-5-phenyl-2,3,4,5-tetrahydro-1,4-benzothiazepin-8-yl]methyl}amino)butanoic acid trifluoroacetate salt], the pIC50 is 5.89.

`CCCCC1(CCCC)CS(=O)(=O)c2cc(CNCC(=O)O)c(OC)cc2C(c2ccccc2)N1` (centres unmarked) [Example 66, N-{[3,3-dibutyl-7-(methyloxy)-1,1-dioxido-5-phenyl-2,3,4,5-tetrahydro-1,4-benzothiazepin-8-yl]methyl}glycine trifluoroacetate salt] showed a pIC50 of 7.68.

`CCCC[C@]1(CC)CS(=O)(=O)c2cc(C(=O)NCCS(=O)(=O)O)c(OC)cc2[C@@H](c2ccccc2)N1` [Example 3, 2-({[(3R,5R)-3-butyl-3-ethyl-7-(methyloxy)-1,1-dioxido-5-phenyl-2,3,4,5-tetrahydro-1,4-benzothiazepin-8-yl]carbonyl}amino)ethanesulfonic acid trifluoroacetate] had a negative logarithm of the IC50 (pIC50) of 8.70. This pIC50 is 1.02 log units higher than that of the molecule before.

The molecule `CCCC[C@]1(CC)CS(=O)(=O)c2cc(CCC(=O)NC(CC(=O)O)CC(=O)O)c(OC)cc2[C@@H](c2ccccc2)N1` [Example 17, 3-({3-[(3R,5R)-3-butyl-3-ethyl-7-(methyloxy)-1,1-dioxido-5-phenyl-2,3,4,5-tetrahydro-1,4-benzothiazepin-8-yl]propanoyl}amino)pentanedioic acid trifluoroacetate salt] gave a pIC50 of 5.48. This pIC50 lies 3.22 log units lower than the previous one.

`CCCC[C@]1(CC)CS(=O)(=O)c2cc(CCC(=O)NCS(=O)(=O)O)c(OC)cc2[C@@H](c2ccccc2)N1` [Example 13, ({3-[(3R,5R)-3-butyl-3-ethyl-7-(methyloxy)-1,1-dioxido-5-phenyl-2,3,4,5-tetrahydro-1,4-benzothiazepin-8-yl]propanoyl}amino)methanesulfonic acid] gave a pIC50 of 6.78.

On to `CCCC[C@]1(CC)CS(=O)(=O)c2cc(C(=O)N(CC(=O)O)CC(=O)O)c(OC)cc2[C@@H](c2ccccc2)N1` [Example 4, 2,2′-({[(3R,5R)-3-butyl-3-ethyl-7-(methyloxy)-1,1-dioxido-5-phenyl-2,3,4,5-tetrahydro-1,4-benzothiazepin-8-yl]carbonyl}imino)diacetic acid hydrochloride], for which the pIC50 was 5.60.

The molecule `CCCC[C@]1(CC)CS(=O)(=O)c2cc(CNCCS(=O)(=O)O)c(OC)cc2[C@@H](c2ccccc2)N1` [Example 35, 2-({[(3R,5R)-3-butyl-3-ethyl-7-(methyloxy)-1,1-dioxido-5-phenyl-2,3,4,5-tetrahydro-1,4-benzothiazepin-8-yl]methyl}amino)ethanesulfonic acid ammonium salt] showed a pIC50 of 7.27. This pIC50 lies 1.67 log units higher than the previous one.

`CCCC[C@]1(CC)CS(=O)(=O)c2cc(CS(=O)(=O)O)c(OC)cc2[C@@H](c2ccccc2)N1` [Example 5, [3R,5R)-3-butyl-3-ethyl-7-(methyloxy)-1,1-dioxido-5-phenyl-2,3,4,5-tetrahydro-1,4-benzothiazepin-8-yl]methanesulfonic acid trifluoroacetate salt] showed a pIC50 of 8.40.

The molecule `CCCC[C@]1(CC)CS(=O)(=O)c2cc(CNCCP(=O)(O)O)c(OC)cc2[C@@H](c2ccccc2)N1` [Example 33, [2-({[(3R,5R)-3-butyl-3-ethyl-7-(methyloxy)-1,1-dioxido-5-phenyl-2,3,4,5-tetrahydro-1,4-benzothiazepin-8-yl]methyl}amino)ethyl]phosphonic acid trifluoroacetate salt] gave a negative-log IC50 (pIC50) of 5.57.

Turning to `CCCC[C@]1(CC)CS(=O)(=O)c2cc(CCC(=O)O)c(OC)cc2[C@@H](c2ccccc2)N1` [Example 10, 3-[(3R,5R)-3-butyl-3-ethyl-7-(methyloxy)-1,1-dioxido-5-phenyl-2,3,4,5-tetrahydro-1,4-benzothiazepin-8-yl]propanoic acid], the negative logarithm of the IC50 (pIC50) is 7.77.

As for `CCCC[C@]1(CC)CS(=O)(=O)c2cc(CN3CCCC3=O)c(OC)cc2[C@@H](c2ccccc2)N1` [Example 31, 1-{[(3R,5R)-3-butyl-3-ethyl-7-(methyloxy)-1,1-dioxido-5-phenyl-2,3,4,5-tetrahydro-1,4-benzothiazepin-8-yl]methyl}-2-pyrrolidinone trifluoroacetate salt], the negative logarithm of the IC50 (pIC50) was 6.39.

In turn, `CCCC[C@]1(CC)CS(=O)(=O)c2cc(CCC(=O)NC(C)(C)C(=O)O)c(OC)cc2[C@@H](c2ccccc2)N1` [Example 16, N-{3-[(3R,5R)-3-butyl-3-ethyl-7-(methyloxy)-1,1-dioxido-5-phenyl-2,3,4,5-tetrahydro-1,4-benzothiazepin-8-yl]propanoyl}-2-methylalanine] gave a negative-log IC50 (pIC50) of 6.14.

Take `CCCC[C@]1(CC)CS(=O)(=O)c2cc(CNC(=O)CCS(=O)(=O)O)c(OC)cc2[C@@H](c2ccccc2)N1` [Example 42, 3-({[(3R,5R)-3-butyl-3-ethyl-7-(methyloxy)-1,1-dioxido-5-phenyl-2,3,4,5-tetrahydro-1,4-benzothiazepin-8-yl]methyl}amino)-3-oxo-1-propanesulfonic]: the pIC50 is 6.89.

As to `CCCC[C@]1(CC)CS(=O)(=O)c2cc(C(N)=O)c(OC)cc2[C@@H](c2ccccc2)N1` [Example 8, (3R,5R)-3-butyl-3-ethyl-7-(methyloxy)-5-phenyl-2,3,4,5-tetrahydro-1,4-benzothiazepine-8-carboxamide-1,1-dioxide], the pIC50 was 7.14. This pIC50 lies 0.25 log units higher than the previous one.

Take `CCCC[C@]1(CC)CS(=O)(=O)c2cc(CCC(=O)N(CC(=O)O)CC(=O)O)c(OC)cc2[C@@H](c2ccccc2)N1` [Example 18, 2,2′-({3-[(3R,5R)-3-butyl-3-ethyl-7-(methyloxy)-1,1-dioxido-5-phenyl-2,3,4,5-tetrahydro-1,4-benzothiazepin-8-yl]propanoyl}imino)diacetic acid]: the negative-log IC50 (pIC50) is 6.14.

`CCCC[C@]1(CC)CS(=O)(=O)c2cc(CN(O)CC(=O)O)c(OC)cc2[C@@H](c2ccccc2)N1` [Example 48, N-{[(3R,5R)-3-butyl-3-ethyl-7-(methyloxy)-1,1-dioxido-5-phenyl-2,3,4,5-tetrahydro-1,4-benzothiazepin-8-yl]methyl}-N-hydroxyglycine] showed a pIC50 of 7.77.

`CCCC[C@]1(CC)CS(=O)(=O)c2cc(CCCS(=O)(=O)O)c(OC)cc2[C@@H](c2ccccc2)N1` [Example 20, 3-[(3R,5R)-3-butyl-3-ethyl-7-(methyloxy)-1,1-dioxido-5-phenyl-2,3,4,5-tetrahydro-1,4-benzothiazepin-8-yl]-1-propanesulfonic acid] showed a pIC50 of 8.40.

`CCCC[C@]1(CC)CS(=O)(=O)c2cc(CN[C@@H](CC(=O)O)C(=O)O)c(OC)cc2[C@@H](c2ccccc2)N1` [Example 27, N-{[(3R,5R)-3-butyl-3-ethyl-7-(methyloxy)-1,1-dioxido-5-phenyl-2,3,4,5-tetrahydro-1,4-benzothiazepin-8-yl]methyl}-L-aspartic acid trifluoroacetate salt] gave a pIC50 of 7.33.

With `CCCC[C@]1(CC)CS(=O)(=O)c2cc(CN[C@@H](CCCCN(C)C)C(=O)O)c(OC)cc2[C@@H](c2ccccc2)N1` [Example 59, N^2-{[(3R,5R)-3-butyl-3-ethyl-7-(methyloxy)-1,1-dioxido-5-phenyl-2,3,4,5-tetrahydro-1,4-benzothiazepin-8-yl]methyl}-N^6,N^6-dimethyl-L-lysine ammonium salt], the negative-log IC50 (pIC50) is 5.48. Against the preceding molecule, the pIC50 is 1.85 log units lower.

For `CCCC[C@]1(CC)CS(=O)(=O)c2cc(CCC(=O)NO)c(OC)cc2[C@@H](c2ccccc2)N1` [Example 12, 3-[(3R,5R)-3-butyl-3-ethyl-7-(methyloxy)-1,1-dioxido-5-phenyl-2,3,4,5-tetrahydro-1,4-benzothiazepin-8-yl]-N-hydroxypropanamide], the negative logarithm of the IC50 (pIC50) is 7.17.

Turning to `CCCC[C@]1(CC)CS(=O)(=O)c2cc(CCCNCCS(=O)(=O)O)c(OC)cc2[C@@H](c2ccccc2)N1` [Example 22, 2-({3-[(3R,5R)-3-butyl-3-ethyl-7-(methyloxy)-1,1-dioxido-5-phenyl-2,3,4,5-tetrahydro-1,4-benzothiazepin-8-yl]propyl}amino)ethanesulfonic acid], the pIC50 was 5.61.
